Here are results for ten compounds from patent publication US20230265116A1, “DEGRADATION OF (EGFR) BY CONJUGATION OF EGFR INHIBITORS WITH E3 LIGASE LIGAND AND METHODS OF USE” (BEIGENE, LTD., priority 2020, published 2023).

Broadly, the DC50 is the concentration at which degradation of the target reaches its halfway point. Broadly, the Dmax is the largest share of the target that was removed.

Holding throughout (type): cell-based
In test [1] the test system is EGFR Del19/T790M/C797S (BaF3-DTC cells). As to the kind of experiment: EGFR degradation HTRF assay, BaF3-DTC cells. The following applies: 16h treatment; for DTC Dmax (%): maximum percentage of degradation; for DC50: read-out: DTC DC50. In short, it runs like this:
(§1)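 EGFR remaining after a 16 h, 37 °C exposure (8 doses, 5-fold steps from 10 uM final, 0.2% DMSO) was quantified by HTRF antibodies in cell lysate. Percent inhibition relative to DMSO control was fitted by four-parameter logistic to give DC50; Dmax denotes maximal degradation.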
In general terms: In TR-FRET formats the signal depends on donor and acceptor labels being close together.

Test [2] has as its target T1, EGFR (HCC827 cells) (Homo sapiens, UniProt P00533, DEL746-750).
T1 construct: endogenous in cells; host or cells: HCC827
As to the kind of experiment: EGFR degradation HTRF assay, HCC827 cells. The settings on record: HCC827, 16h treatment; for Dmax: maximum percentage of degradation. In outline:
as §1

Test [3] addresses T2, EGFR L858R/T790M (H1975-clone #36, homozygous) (Homo sapiens, UniProt P00533, L858R/T790M).
T2 construct: designed to specifically target WT EGFR but preserve the L858R/T790M copy; host or cells: H1975-clone #36
As to the kind of experiment: EGFR degradation HTRF assay, H1975-clone #36 cells. The following applies: H1975 #36, 16h treatment; for Dmax: NCI-H1975, maximum percentage of degradation. In short, it runs like this:
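Eight-point, 5-fold series starting at 10 uM (0.2% DMSO) applied for 16 h, 37 °C, to a WT-EGFR-knockout H1975 clone carrying only L858R/T790M. Lysates read by HTRF overnight. Degradation percentage relative to DMSO control fitted for DC50, with Dmax as maximum degradation.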

Test [4] addresses T3, EGFR L858R/T790M/C797S (BaF3-LTC cells) (Homo sapiens, UniProt P00533, C797S/L858R/T790M).
T3 construct: expressed in transfected cells; host or cells: BaF3
As to the kind of experiment: EGFR degradation HTRF assay, BaF3-LTC cells. The settings on record: BaF3-LTC, 16h treatment; for Dmax: maximum percentage of degradation, read-out: LTC Dmax (%); for DC50: read-out: LTC DC50. In outline: as §1

T2 sequence (P00533 25-1210 T790M/L858R): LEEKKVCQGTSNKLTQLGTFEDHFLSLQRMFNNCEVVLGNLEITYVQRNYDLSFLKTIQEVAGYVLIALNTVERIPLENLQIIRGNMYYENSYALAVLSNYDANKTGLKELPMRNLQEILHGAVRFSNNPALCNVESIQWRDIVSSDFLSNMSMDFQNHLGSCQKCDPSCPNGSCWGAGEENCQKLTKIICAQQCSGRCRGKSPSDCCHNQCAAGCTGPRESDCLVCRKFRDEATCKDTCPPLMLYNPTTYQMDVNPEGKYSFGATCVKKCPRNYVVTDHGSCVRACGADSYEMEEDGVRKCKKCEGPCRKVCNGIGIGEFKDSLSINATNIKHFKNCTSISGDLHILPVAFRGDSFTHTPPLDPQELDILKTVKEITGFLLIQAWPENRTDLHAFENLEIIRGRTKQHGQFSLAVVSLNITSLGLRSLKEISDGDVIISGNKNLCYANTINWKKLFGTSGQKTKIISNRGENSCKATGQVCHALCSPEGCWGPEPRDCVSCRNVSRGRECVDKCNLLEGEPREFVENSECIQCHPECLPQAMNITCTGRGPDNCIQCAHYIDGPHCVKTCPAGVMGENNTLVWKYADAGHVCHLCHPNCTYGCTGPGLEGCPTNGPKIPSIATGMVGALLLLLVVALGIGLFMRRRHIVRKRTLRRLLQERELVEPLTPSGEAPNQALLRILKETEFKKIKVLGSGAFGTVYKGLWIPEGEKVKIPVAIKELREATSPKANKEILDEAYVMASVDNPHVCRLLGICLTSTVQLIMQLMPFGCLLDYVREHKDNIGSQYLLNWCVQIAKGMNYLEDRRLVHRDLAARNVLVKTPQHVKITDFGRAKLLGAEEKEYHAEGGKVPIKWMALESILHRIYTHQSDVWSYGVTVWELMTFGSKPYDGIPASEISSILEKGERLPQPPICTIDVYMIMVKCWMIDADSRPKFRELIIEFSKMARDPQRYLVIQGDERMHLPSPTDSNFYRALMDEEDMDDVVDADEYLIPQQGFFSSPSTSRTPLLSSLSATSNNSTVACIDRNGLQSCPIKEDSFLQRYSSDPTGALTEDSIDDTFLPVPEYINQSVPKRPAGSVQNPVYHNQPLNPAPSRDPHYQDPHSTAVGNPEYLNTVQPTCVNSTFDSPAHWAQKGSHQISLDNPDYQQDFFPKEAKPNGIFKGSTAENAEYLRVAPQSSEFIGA
T3 sequence (P00533 25-1210 T790M/C797S/L858R): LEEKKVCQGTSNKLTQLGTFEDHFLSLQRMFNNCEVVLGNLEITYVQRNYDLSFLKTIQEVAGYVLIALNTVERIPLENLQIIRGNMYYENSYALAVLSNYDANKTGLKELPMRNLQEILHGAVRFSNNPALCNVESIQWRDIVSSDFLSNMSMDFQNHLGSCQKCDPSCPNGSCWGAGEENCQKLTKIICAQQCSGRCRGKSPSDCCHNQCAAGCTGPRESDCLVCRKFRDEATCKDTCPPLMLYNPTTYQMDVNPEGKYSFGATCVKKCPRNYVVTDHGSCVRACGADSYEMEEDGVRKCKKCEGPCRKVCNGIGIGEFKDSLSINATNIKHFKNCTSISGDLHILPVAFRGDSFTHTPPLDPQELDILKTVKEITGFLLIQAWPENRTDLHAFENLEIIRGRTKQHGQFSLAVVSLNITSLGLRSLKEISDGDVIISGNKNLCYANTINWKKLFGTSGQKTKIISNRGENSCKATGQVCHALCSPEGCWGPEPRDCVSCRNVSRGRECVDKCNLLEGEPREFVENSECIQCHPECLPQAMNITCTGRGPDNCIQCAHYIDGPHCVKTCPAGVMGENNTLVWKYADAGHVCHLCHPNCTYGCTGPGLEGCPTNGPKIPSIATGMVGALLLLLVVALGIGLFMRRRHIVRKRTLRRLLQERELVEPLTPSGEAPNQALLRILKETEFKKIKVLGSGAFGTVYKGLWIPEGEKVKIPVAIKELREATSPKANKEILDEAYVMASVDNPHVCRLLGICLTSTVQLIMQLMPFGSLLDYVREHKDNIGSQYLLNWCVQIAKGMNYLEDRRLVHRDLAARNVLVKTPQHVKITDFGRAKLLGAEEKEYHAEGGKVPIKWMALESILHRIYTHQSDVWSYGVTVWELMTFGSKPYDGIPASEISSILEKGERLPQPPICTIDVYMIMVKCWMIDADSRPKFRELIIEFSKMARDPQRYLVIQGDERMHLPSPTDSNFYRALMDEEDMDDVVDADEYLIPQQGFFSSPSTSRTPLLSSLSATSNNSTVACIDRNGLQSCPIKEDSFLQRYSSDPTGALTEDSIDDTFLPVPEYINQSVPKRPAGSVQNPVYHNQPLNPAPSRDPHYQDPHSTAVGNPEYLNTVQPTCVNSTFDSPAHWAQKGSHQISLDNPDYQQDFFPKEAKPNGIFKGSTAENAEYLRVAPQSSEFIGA
T1 sequence (P00533 with tags, fused parts or gaps DEL746-750): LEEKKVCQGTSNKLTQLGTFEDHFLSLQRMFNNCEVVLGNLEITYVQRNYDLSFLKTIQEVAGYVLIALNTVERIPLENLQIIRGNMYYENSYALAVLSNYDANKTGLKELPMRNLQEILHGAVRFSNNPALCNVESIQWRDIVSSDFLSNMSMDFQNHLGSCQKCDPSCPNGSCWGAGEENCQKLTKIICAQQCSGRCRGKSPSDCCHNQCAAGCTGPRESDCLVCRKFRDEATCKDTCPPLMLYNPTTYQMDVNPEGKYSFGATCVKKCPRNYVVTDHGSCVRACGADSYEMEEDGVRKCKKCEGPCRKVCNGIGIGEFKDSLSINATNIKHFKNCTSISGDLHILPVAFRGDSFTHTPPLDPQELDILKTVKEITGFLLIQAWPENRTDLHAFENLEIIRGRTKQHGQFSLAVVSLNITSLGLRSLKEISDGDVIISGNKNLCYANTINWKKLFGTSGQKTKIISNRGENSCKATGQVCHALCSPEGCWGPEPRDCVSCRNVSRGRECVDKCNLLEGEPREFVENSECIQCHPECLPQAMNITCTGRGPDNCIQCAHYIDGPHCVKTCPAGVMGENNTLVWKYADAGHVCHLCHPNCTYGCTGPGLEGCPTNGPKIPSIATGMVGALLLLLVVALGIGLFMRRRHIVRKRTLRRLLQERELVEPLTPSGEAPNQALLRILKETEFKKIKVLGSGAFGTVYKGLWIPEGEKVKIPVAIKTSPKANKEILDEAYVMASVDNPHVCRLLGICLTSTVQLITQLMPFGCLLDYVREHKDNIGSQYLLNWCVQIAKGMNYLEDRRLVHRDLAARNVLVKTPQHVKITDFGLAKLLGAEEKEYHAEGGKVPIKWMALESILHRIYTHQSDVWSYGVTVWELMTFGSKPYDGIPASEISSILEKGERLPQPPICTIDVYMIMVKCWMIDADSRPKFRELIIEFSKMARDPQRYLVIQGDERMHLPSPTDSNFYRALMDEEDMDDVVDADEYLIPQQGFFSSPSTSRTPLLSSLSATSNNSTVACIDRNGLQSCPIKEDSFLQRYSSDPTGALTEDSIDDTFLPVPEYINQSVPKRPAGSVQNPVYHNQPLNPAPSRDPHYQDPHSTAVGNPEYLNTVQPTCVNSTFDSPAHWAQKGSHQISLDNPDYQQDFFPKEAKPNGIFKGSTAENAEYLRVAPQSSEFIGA

On to `CCc1cc(Nc2ncc(Br)c(Nc3ccc4nccnc4c3P(C)(C)=O)n2)c(OC)cc1N1CCC(N2CCN(C(=O)C3CN(c4ccc5c(c4)C(=O)N(C4CCC(=O)NC4=O)C5=O)C3)CC2)CC1` (centres unmarked) [Example 64, 5-(3-(4-(1-(4-((5-bromo-4-((5-(dimethylphosphoryl)quinoxalin-6-yl)amino)pyrimidin-2-yl)amino)-2-ethyl-5-methoxyphenyl)piperidin-4-yl)piperazine-1-carbonyl)azetidin-1-yl)-2-(2,6-dioxopiperidin-3-yl)isoindoline-1,3-dione], for which the “DTC Dmax (%)” value in test [1] is given as 90.07%. The DC50 in test [1] was found to be 4.85 nM; in test [2] it was 2.06 nM; in test [3], 3.12 nM; in test [4], 1.72 nM. Moreover, the Dmax turned out to be 75.7% in test [2], 85.8% in test [3] and 85.4% in test [4].

On to `CCc1cc(Nc2ncc(Br)c(Nc3ccc4nccnc4c3P(C)(C)=O)n2)c(OC)cc1N1CCC(N2CCN(C(=O)C3CCN(c4ccc5c(c4)C(=O)N(C4CCC(=O)NC4=O)C5=O)CC3)CC2)CC1` (centres unmarked) [Example 67, 5-(4-(4-(1-(4-((5-bromo-4-((5-(dimethylphosphoryl)quinoxalin-6-yl)amino)pyrimidin-2-yl)amino)-2-ethyl-5-methoxyphenyl)piperidin-4-yl)piperazine-1-carbonyl)piperidin-1-yl)-2-(2,6-dioxopiperidin-3-yl)isoindoline-1,3-dione], for which the “DTC Dmax (%)” value in test [1] was found to be 94.22%. For the same compound, the DC50 in test [1] is 4.71 nM; in test [2], 6.2 nM; in test [3] it was 9.74 nM; in test [4], 13.3 nM. Also, the Dmax in test [2] is 76.7%; in test [3], 74.8%; in test [4], 87.9%.

Consider `CCc1cc(Nc2ncc(Br)c(Nc3ccc4nccnc4c3P(C)(C)=O)n2)c(OC)cc1N1CCC(N2CCN(CC3CN(c4ccc5c(c4)CN(C4CCC(=O)NC4=O)C5=O)C3)CC2)CC1` (centres unmarked) [Example 160, 3-(5-(3-((4-(1-(4-((5-bromo-4-((5-(dimethylphosphoryl)quinoxalin-6-yl)amino)pyrimidin-2-yl)amino)-2-ethyl-5-methoxyphenyl)piperidin-4-yl)piperazin-1-yl)methyl)azetidin-1-yl)-1-oxoisoindolin-2-yl)piperidine-2,6-dione], for which the “DTC Dmax (%)” value in test [1] was 94.14%. The 50% degradation concentration (DC50) is 6.95 nM in test [1], 2.69 nM in test [2], 3.07 nM in test [3] and 18.1 nM in test [4]. Further, the results for the Dmax in test [2], in test [3] and in test [4] were 81.7%, 76.8% and 92.9%, respectively.

In the case of `CCc1cc(Nc2ncc(Br)c(Nc3ccc4nccnc4c3P(C)(C)=O)n2)c(OC)cc1N1CCC(N2CCN(CC3CCN(c4ccc(C5CCC(=O)NC5=O)cc4)C3)CC2)CC1` (centres unmarked) [Example 168, 3-(4-(3-((4-(1-(4-((5-bromo-4-((5-(dimethylphosphoryl)quinoxalin-6-yl)amino)pyrimidin-2-yl)amino)-2-ethyl-5-methoxyphenyl)piperidin-4-yl)piperazin-1-yl)methyl)pyrrolidin-1-yl)phenyl)piperidine-2,6-dione], in test [1], the “DTC Dmax (%)” value amounted to 88.5%. The 50% degradation concentration (DC50) came to 22.4 nM in test [1], 4.85 nM in test [2], 1.61 nM in test [3] and 47 nM in test [4]. In addition, the Dmax in test [2] amounted to 81.2%; in test [3], 62.4%; in test [4], 86.4%.

For `CCc1cc(Nc2ncc(Br)c(Nc3ccc4nccnc4c3P(C)(C)=O)n2)c(OC)cc1N1CCC(N2CCN(C(=O)C3CCN(c4ccc5c(c4)C(C)(C)C(=O)N5C4CCC(=O)NC4=O)CC3)CC2)CC1` (centres unmarked) [Example 219, 3-(5-(4-(4-(1-(4-((5-bromo-4-((5-(dimethylphosphoryl)quinoxalin-6-yl)amino)pyrimidin-2-yl)amino)-2-ethyl-5-methoxyphenyl)piperidin-4-yl)piperazine-1-carbonyl)piperidin-1-yl)-3,3-dimethyl-2-oxoindolin-1-yl)piperidine-2,6-dione], the “DTC Dmax (%)” value in test [1] came out at 93%. Moreover, the half-maximal degradation concentration (DC50) in test [1] is 1.94 nM; in test [2] it was 3.21 nM; in test [3] it was 0.65 nM; in test [4] it was 4.8 nM. For the same compound, the Dmax in test [2] came to 65.9%; in test [3] it was 69.6%; in test [4], 87.5%.

For the compound `CCc1cc(Nc2ncc(Br)c(Nc3ccc4nccnc4c3P(C)(C)=O)n2)c(OC)cc1N1CCC(N2CCN(C[C@H]3CCN(c4ccc(C5CCC(=O)NC5=O)cc4)C3)CC2)CC1` (stereo partly drawn) [Example 220, 3-(4-((R)-3-((4-(1-(4-((5-bromo-4-((5-(dimethylphosphoryl)quinoxalin-6-yl)amino)pyrimidin-2-yl)amino)-2-ethyl-5-methoxyphenyl)piperidin-4-yl)piperazin-1-yl)methyl)pyrrolidin-1-yl)phenyl)piperidine-2,6-dione], in test [1], the “DTC Dmax (%)” value came out at 86%. Also, the DC50 was determined as 18.2 nM in test [1], 5.1 nM in test [2], 8.8 nM in test [3] and 43.2 nM in test [4]. The greatest degradation seen (Dmax) worked out at 77.7% in test [2], 85.6% in test [3] and 88.8% in test [4].

Turning to `CCc1cc(Nc2ncc(Br)c(Nc3ccc4nccnc4c3P(C)(C)=O)n2)c(OC)cc1N1CCC(N2CCN(C[C@@H]3CCN(c4ccc(C5CCC(=O)NC5=O)cc4)C3)CC2)CC1` (stereo partly drawn) [Example 221, 3-(4-((S)-3-((4-(1-(4-((5-bromo-4-((5-(dimethylphosphoryl)quinoxalin-6-yl)amino)pyrimidin-2-yl)amino)-2-ethyl-5-methoxyphenyl)piperidin-4-yl)piperazin-1-yl)methyl)pyrrolidin-1-yl)phenyl)piperidine-2,6-dione], in test [1], the “DTC Dmax (%)” value came out at 87.37%. Also, the 50% degradation concentration (DC50) in test [1] was 15.7 nM; in test [2] it was 5.15 nM; in test [3], 6.46 nM; in test [4], 36.1 nM. The results for the greatest degradation seen (Dmax) in test [2], in test [3] and in test [4] were 75.3%, 61% and 84.2%, respectively.

In the case of `CCc1cc(Nc2ncc(Br)c(Nc3ccc4nccnc4c3P(C)(C)=O)n2)c(OC)cc1N1CCC(N2CCN(C(=O)CC3CN(c4ccc5c(c4)C(=O)N(C4CCC(=O)NC4=O)C5=O)C3)CC2)CC1` (centres unmarked) [Example 222, 5-(3-(2-(4-(1-(4-((5-bromo-4-((5-(dimethylphosphoryl)quinoxalin-6-yl)amino)pyrimidin-2-yl)amino)-2-ethyl-5-methoxyphenyl)piperidin-4-yl)piperazin-1-yl)-2-oxoethyl)azetidin-1-yl)-2-(2,6-dioxopiperidin-3-yl)isoindoline-1,3-dione], in test [1], the “DTC Dmax (%)” value is given as 83.72%. For the same compound, the 50% degradation concentration (DC50) in test [1] was found to be 3.41 nM; in test [2], 3.71 nM; in test [3] it was 7.03 nM; in test [4], 21.3 nM. Further, the maximal degradation (Dmax) turned out to be 78.5% in test [2], 69% in test [3] and 75.6% in test [4].

`CCc1cc(Nc2ncc(Br)c(Nc3ccc4nccnc4c3P(C)(C)=O)n2)c(OC)cc1N1CCC(N2CCN(C(=O)[C@H]3C[C@H](N(C)c4ccc(C5CCC(=O)NC5=O)cc4)C3)CC2)CC1` (some centres unmarked) [Example 247, 3-(4-(((1r,3r)-3-(4-(1-(4-((5-bromo-4-((5-(dimethylphosphoryl)quinoxalin-6-yl)amino)pyrimidin-2-yl)amino)-2-ethyl-5-methoxyphenyl)piperidin-4-yl)piperazine-1-carbonyl)cyclobutyl)(methyl)amino)phenyl)piperidine-2,6-dione]: the “DTC Dmax (%)” value in test [1] is on record as 86.93%. For the same compound, the 50% degradation concentration (DC50) was determined as 6.37 nM in test [1], 4.59 nM in test [2], 5.1 nM in test [3] and 18.6 nM in test [4]. The maximal degradation (Dmax) stood at 67% in test [2], 72.8% in test [3] and 83.1% in test [4].

`CCc1cc(Nc2ncc(Br)c(Nc3ccc4nccnc4c3P(C)(C)=O)n2)c(OC)cc1N1CCC(N2CCN(C(=O)C3CCN(c4cc(F)c(C5CCC(=O)NC5=O)c(F)c4)CC3)CC2)CC1` (centres unmarked) [Example 254, 3-(4-(4-(4-(1-(4-((5-bromo-4-((5-(dimethylphosphoryl)quinoxalin-6-yl)amino)pyrimidin-2-yl)amino)-2-ethyl-5-methoxyphenyl)piperidin-4-yl)piperazine-1-carbonyl)piperidin-1-yl)-2,6-difluorophenyl)piperidine-2,6-dione]: the “DTC Dmax (%)” value in test [1] stood at 92.55%. The DC50 turned out to be 4.98 nM in test [1], 3.14 nM in test [2], 3.61 nM in test [3] and 15.9 nM in test [4]. Besides, the Dmax in test [2] came out at 77.7%; in test [3], 75.5%; in test [4] it was 84.7%.
